# Earlier results, collected in US8901128B2, “Pharmaceutical compositions of ranolazine” (Lupin Limited, priority 2009, dated 2014).
# Legend:
# [1] = system: humans suffering from angina; conditions: administered as an IR formulation; 120 mg three times daily
# [2] = low pH that occurs in the stomach
# [3] = in vivo
smiles,measurement,setting,value
"COc1ccccc1OCC(O)CN1CCN(CC(=O)Nc2c(C)cccc2C)CC1 (racemic) [ranolazine, (±)-N-(2,6-dimethylphenyl)-4-[2-hydroxy-3-(2-methoxyphenoxy)-propyl]-1-piperazineacetamide]",antianginal and anti-ischemic efficacy,[1],ineffective
same,solubility,[2],relatively high
same,plasma half-life,[3],relatively short
